Assay results from patent US10258692B2, “Oral pharmaceutical formulation of BCS class III molecules” (ETHYPHARM, priority 2012, dated 2019).
In brackets after ≈: the same amount, converted by molar mass. Like-named read-outs stand apart in the source and are kept apart here. Values belong to the molecule of their own block, whether it stands above or below them.

What was measured:
[1] = Physicochemical characteristics of baclofen (internal report)
Experimental: Baclofen (FIG. 1) is a BCS class III molecule.
The transport mechanism of baclofen (Merino, et al., 1989) is active transport by means of transporters but these are saturated at high dose. Not knowing the transporter composition of the Caco-2 cells, it is sought to have a high concentration of baclofen in the formulas so that the transporters that are present are saturated. Therefore only the increase in paracellular transport was evaluated. The saturation concentration of baclofen in water is 3 mg/ml (internal pre-formulation report). However, its solubility is highly dependent on pH as indicated by the amine and carboxylic functions present on the molecule. Therefore the addition of 0.01 M fumaric acid shown to be compatible with baclofen by the internal pre-formulation report, allows the solubility of baclofen to be increased twofold to 6 mg/ml. The pH is then 3.88.

[2] = tested on: Caco-2 cells; assay: Permeability assay on Caco-2 cells (apparent permeability); assay type: in vitro ADME, human; settings: Caco-2, apical pH 6.8 to basolateral pH 7.4; listed as non-formulated baclofen
Text: (§1) The Caco-2 cells are derived from the culture of human cells of cancerous origin capable of differentiating in the presence of a suitable culture medium (Pontier, 1997-1998). Their properties are a function of the number of subcultures to which they are subjected. […] The brush-border is differentiated and developed with very tight junctions of 10 to 50 Å (narrower than those of the small intestine). From a biochemical viewpoint, Caco-2 cells also express the enzymes of the enterocytes. In addition, numerous transporters are present but their expression is lower than the levels found in vivo and the P-gp efflux pump is over-expressed which may underestimate absorption compared with in vivo.
(§2) The Caco-2 cells were placed in culture and differentiated over 21 to 30 days. They were subjected to a number of subcultures of less than 110. The culture medium was DMEM (Dulbecco's Modified Eagle Medium) supplemented with inactivated 10% foetal calf serum, with 1% non-essential amino acids and antibiotics.
(§3) The Caco-2 cells allowed evaluation of the potential of eight formulas given in Tables 5a, 5b, 5c and 5d, for improvement in the apparent permeability of baclofen. The dilutions are those chosen by the subcontractor as a function of baclofen concentration measured by the assay technique and as a function of the […] non-toxic concentration given by preliminary toxicity studies.
(§4) Samples were taken after the placing the test specimen in the apical medium: at T5 minutes and T125 minutes in the donor compartment and at T65 minutes and T125 minutes in the receiver compartment. […]
(§5) The apparent permeability of baclofen and the recovery ratio were calculated as follows: Papp=[ΔQ/(Δt×A)]/C0 where Papp=apparent permeability (cm·s^−1) • ΔQ=difference in amount of baclofen measured between the two samplings • Δt=time interval between the two samplings • A=exposure surface area (cm^2) • C0=initial concentration deposited in the donor compartment.
(§6) Each assay was performed three times. For the validity of the assay, the permeability of a reference compound was also measured as positive control. […]

[3] = as above; assay type: in vitro ADME, human; settings: human
Text: as §1, §2, §3, §4, §5, §6

[4] = Baclofen solubility assays (visual method); assay type: physicochemical; settings: for solubility at 24 h: thermodynamic from solid
Experimental: Beforehand it is important to determine the solubility of the active ingredient in the excipients to be evaluated. For the purpose of cell assays, it is important that the active ingredient should be in molecular form to obtain cross-membrane transport. Solubility was determined via visual method by adding exactly weighed quantities of baclofen to the selected excipients, after being left under agitation for 24 h. First the solubility of baclofen at ambient temperature in Labrasol®, Miglyol® 810 and Captex® 355 was determined. The solubility of baclofen in Gélucire® 50/13 was determined after melting the excipient at a temperature higher than 50° C. and placing thereof in a thermostat-controlled oven at 60° C. At a second step, to increase the solubility of baclofen in an aqueous medium, this solubility was determined in an acidified solution of 0.01 M fumaric acid.
The solubility values indicated in Table 7 below were determined in relation to visual observation of particles in the media.

[5] = Benet, et al., 2011; cited from earlier work
[6] = tested on: Caco-2 cells; assay: Lucifer Yellow test (paracellular transport, tight junctions); assay type: cell-based, human
Text: Lucifer yellow (LY) is a marker of paracellular transport (Buyukorturk, et al., 2010). Its measurement in the receiver compartment during the permeability assay allows observation of the opening of the tight junctions. Measurement can also be performed after the assay to evaluate cell integrity (Nollevaux, et al., 2006). The apparent permeability of Lucifer Yellow under normal conditions is […] (Oroxcell, 2011).
Throughout the assays the crossing of Lucifer Yellow from the apical to the basolateral compartment, a marker of paracellular transport, was also evaluated. 200 μM of Lucifer Yellow was co-incubated with the test compound and its permeability evaluated in the same manner as for the latter. Concentrations were measured by fluorescence in both compartments at the start and at the end of the assay.

logP [1]: -1
pH of a saturated solution [1]: 6.5
pKa1 [1]: pKa1 = 3.87
pKa2 [1]: pKa2 = 9.62
Solubility ([1]; 0.1N HCl, 0.1N NaOH): Soluble: 0.1N HCl, 0.1N NaOH
Solubility ([1]; Ethanol, Methanol): Very slightly soluble: Ethanol, Methanol
Solubility ([1]; water, read-out: Solubility (saturation concentration) in water): 3000 µg/mL (≈ 14 mM)
apparent permeability of baclofen [2]: lower than 0.5×10^−6 cm/s
Papp A→B at 125 min ([3]; Caco-2, Caco-2, apical pH 6.8 to basolateral pH 7.4, read-out: apparent permeability of baclofen): < 0.3 ×10⁻⁶ cm/s
pH of the baclofen solution ([4]; 6 mg/ml baclofen in 0.01 M fumaric acid): 3.88
solubility at 24 h ([4]; 0.01 M fumaric acid aqueous solution, pH 3.88, aqueous buffer, in 0.01M fumaric acid aqueous medium, ambient, read-out: Solubility of baclofen): 6000 to 7000 µg/mL (≈ 28.1 to 32.8 mM)
solubility at 24 h ([4]; Gélucire 50/13 (molten), oil or lipid, in Gélucire ® 50/13, 60° C., read-out: Solubility of baclofen): 500 to 1000 µg/mL (≈ 2.34 to 4.68 mM)
solubility in words ([4]; aqueous medium): soluble
solubility at 24 h ([4]; liquid absorption enhancers, oil or lipid, read-out: solubility of the active ingredient in the liquid absorption enhancers): < 1000 µg/mL
solubility in words ([4]; oil excipients): practically insoluble
solubility at 24 h ([4]; oil or lipid, in Captex ® 355, ambient, read-out: Solubility of baclofen): < 100 µg/mL
solubility at 24 h ([4]; oil or lipid, in Labrasol ®, ambient, read-out: Solubility of baclofen): 200 to 400 µg/mL (≈ 0.936 to 1.87 mM)
solubility at 24 h ([4]; oil or lipid, in Miglyol ® 810, ambient, read-out: Solubility of baclofen): < 100 µg/mL
SMILES: NCC(CC(=O)O)c1ccc(Cl)cc1 (stereo not drawn) [baclofen, Baclofen]
log P [5]: −0.96

Papp A→B at 125 min, 20 μM ([3]; Caco-2, 20 μM metoprolol, positive control): > 6 ×10⁻⁶ cm/s
SMILES: COCCc1ccc(OCC(O)CNC(C)C)cc1 (stereo not drawn) [metoprolol]
opening of the tight junctions, in words [6]: lack of effect
